The source of these data is article PMC4819188, “BitterX: a tool for understanding bitter taste in humans” (Scientific Reports, 2016).

Where two headings read alike, the source gives them in different places.

Common to all, as to assay: calcium imaging (Fluo-4) dose-response, HEK293T
What all share (type): cell-based

For one assay, the target named is T1, TAS2R14 (Homo sapiens, UniProt Q9NYV8).
T1 construct: full ORF from human genomic DNA with N-terminal rhodopsin tag (first 20 residues), pCI; HEK293T with Galpha16/gust44
T1 sequence (Q9NYV8 1-317): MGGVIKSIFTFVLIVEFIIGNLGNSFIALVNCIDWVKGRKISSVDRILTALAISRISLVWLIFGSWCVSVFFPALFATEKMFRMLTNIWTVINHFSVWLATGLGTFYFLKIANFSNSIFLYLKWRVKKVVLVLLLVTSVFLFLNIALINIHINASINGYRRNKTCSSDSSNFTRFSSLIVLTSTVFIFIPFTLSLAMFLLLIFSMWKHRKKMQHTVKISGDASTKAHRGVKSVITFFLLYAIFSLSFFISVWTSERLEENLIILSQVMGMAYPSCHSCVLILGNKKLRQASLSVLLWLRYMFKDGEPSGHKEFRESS
An excerpt: calcium imaging (Fluo-4) dose-response, HEK293T on TAS2R14

The target in another assay is T2, TAS2R41 (Homo sapiens, UniProt P59536).
T2 construct: full ORF from human genomic DNA with N-terminal rhodopsin tag (first 20 residues), pCI; HEK293T with Galpha16/gust44
T2 sequence (P59536 1-307): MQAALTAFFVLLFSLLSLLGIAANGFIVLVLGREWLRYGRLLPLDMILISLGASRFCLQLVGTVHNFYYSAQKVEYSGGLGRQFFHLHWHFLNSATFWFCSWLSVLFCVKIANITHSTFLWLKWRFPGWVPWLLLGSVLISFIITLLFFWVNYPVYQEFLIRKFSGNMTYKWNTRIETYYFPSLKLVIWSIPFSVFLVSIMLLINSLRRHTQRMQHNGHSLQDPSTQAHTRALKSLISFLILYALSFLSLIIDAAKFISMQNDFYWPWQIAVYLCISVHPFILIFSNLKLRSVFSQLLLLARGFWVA
An excerpt:
calcium imaging (Fluo-4) dose-response, HEK293T on TAS2R41

A further assay deals with T3, TAS2R10 (Homo sapiens, UniProt Q9NYW0).
T3 construct: full ORF from human genomic DNA with N-terminal rhodopsin tag (first 20 residues), pCI; HEK293T with Galpha16/gust44
T3 sequence (Q9NYW0 1-307): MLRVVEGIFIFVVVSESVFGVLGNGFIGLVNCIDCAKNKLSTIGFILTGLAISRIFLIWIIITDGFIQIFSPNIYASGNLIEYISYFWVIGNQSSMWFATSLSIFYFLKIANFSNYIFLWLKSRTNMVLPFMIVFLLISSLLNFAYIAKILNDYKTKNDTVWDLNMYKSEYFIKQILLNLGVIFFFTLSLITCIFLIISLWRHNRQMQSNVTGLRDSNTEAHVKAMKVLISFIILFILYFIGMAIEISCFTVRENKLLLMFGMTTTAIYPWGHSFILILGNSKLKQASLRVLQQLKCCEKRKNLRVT
An excerpt: calcium imaging (Fluo-4) dose-response, HEK293T on TAS2R10

A further assay deals with T4, TAS2R4 (Homo sapiens, UniProt Q9NYW5).
T4 construct: full ORF from human genomic DNA with N-terminal rhodopsin tag (first 20 residues), pCI; HEK293T with Galpha16/gust44
T4 sequence (Q9NYW5 1-299): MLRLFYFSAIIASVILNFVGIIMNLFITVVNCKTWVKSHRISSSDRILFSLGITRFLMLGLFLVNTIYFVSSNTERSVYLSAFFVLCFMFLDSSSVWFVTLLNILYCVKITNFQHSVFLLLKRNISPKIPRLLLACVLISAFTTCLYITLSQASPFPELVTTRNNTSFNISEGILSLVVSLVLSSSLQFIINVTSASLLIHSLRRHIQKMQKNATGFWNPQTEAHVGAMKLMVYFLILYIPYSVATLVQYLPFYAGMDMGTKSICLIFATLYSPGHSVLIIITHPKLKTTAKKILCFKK
An excerpt:
calcium imaging (Fluo-4) dose-response, HEK293T on TAS2R4

The next assay concerns the target T5, TAS2R16 (Homo sapiens, UniProt Q9NYV7).
T5 construct: full ORF from human genomic DNA with N-terminal rhodopsin tag (first 20 residues), pCI; HEK293T with Galpha16/gust44
T5 sequence (Q9NYV7 1-291): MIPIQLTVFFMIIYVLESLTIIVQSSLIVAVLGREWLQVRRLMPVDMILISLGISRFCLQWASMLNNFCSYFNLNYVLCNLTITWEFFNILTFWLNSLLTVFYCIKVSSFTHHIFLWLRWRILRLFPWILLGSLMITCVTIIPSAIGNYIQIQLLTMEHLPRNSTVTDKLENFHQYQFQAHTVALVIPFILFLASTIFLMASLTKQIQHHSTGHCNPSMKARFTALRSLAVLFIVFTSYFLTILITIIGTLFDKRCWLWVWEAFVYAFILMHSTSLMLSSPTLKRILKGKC
An excerpt: calcium imaging (Fluo-4) dose-response, HEK293T on TAS2R16

A further assay concerns the target T6, TAS2R46 (Homo sapiens, UniProt P59540).
T6 construct: full ORF from human genomic DNA with N-terminal rhodopsin tag (first 20 residues), pCI; HEK293T with Galpha16/gust44
T6 sequence (P59540 1-309): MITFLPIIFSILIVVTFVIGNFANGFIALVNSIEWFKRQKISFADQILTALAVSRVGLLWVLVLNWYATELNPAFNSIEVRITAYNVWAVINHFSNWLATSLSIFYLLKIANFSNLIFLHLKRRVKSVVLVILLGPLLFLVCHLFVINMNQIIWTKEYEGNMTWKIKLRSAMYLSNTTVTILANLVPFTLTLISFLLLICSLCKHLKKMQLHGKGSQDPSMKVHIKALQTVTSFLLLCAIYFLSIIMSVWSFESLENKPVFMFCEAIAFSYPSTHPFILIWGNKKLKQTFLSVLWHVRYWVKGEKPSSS
An excerpt:
calcium imaging (Fluo-4) dose-response, HEK293T on TAS2R46

Another assay deals with T7, TAS2R39 (Homo sapiens, UniProt P59534).
T7 construct: full ORF from human genomic DNA with N-terminal rhodopsin tag (first 20 residues), pCI; HEK293T with Galpha16/gust44
T7 sequence (P59534 1-338): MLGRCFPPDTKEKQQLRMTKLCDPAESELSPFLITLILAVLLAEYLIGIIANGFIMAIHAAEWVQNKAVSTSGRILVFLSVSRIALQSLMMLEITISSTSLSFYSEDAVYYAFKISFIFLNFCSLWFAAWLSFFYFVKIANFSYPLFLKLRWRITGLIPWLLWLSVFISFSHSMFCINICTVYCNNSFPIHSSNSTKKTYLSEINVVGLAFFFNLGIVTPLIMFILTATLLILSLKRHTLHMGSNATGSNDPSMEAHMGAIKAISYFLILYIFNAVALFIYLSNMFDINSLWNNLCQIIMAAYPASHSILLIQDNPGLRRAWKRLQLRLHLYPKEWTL
An excerpt: calcium imaging (Fluo-4) dose-response, HEK293T on TAS2R39

Regarding `N=C(N)NC(=N)Nc1ccccc1` [compound 1, 1], the half-maximal effective concentration (EC50) at TAS2R14 was 760 µM; at TAS2R41 it was 3320 µM; at TAS2R10 it was 1540 µM; at TAS2R4, 3710 µM.

As for `NC(=O)c1ccccc1O` [compound 2, 2], the EC50 at TAS2R14 (read-out: Log EC50 (converted)) was 356 µM; at TAS2R10 (read-out: Log EC50 (converted)), 9750 µM; at TAS2R16 it was 489 µM.

As for `COc1ccccc1C=O` [compound 4, 4], the 50% effective concentration (EC50) on TAS2R14 (read-out: Log EC50 (converted)) is 1230 µM; at TAS2R10 (read-out: Log EC50 (converted)) it was 4000 µM.

As to `COc1cc(/C=C\C(=O)O)cc(S(=O)(=O)Nc2ccc(C(=O)O)cc2)c1OC` [compound 5, 5], the half-maximal effective concentration (EC50) at TAS2R46 is 138 µM; on TAS2R14, 232 µM; on TAS2R39, 84.1 µM; on TAS2R10, 4000 µM.

Regarding `c1ccc(CC2=NCCN2)cc1` [ww3], on TAS2R14, the concentration for a half-maximal effect (EC50) is 1280 µM.

The term EC50 denotes the concentration at which the effect is half-maximal.
